From patent publication US8148365B2 (priority 2006, dated 2012)
Where a name gives a salt, the structure may show the parent alone.

Biological target: α7-subtype of nicotinic receptors (Rattus norvegicus, UniProt Q05941)
Test: biochemical
Format: binding

Sequence of α7-subtype of nicotinic receptors (Q05941 23-502): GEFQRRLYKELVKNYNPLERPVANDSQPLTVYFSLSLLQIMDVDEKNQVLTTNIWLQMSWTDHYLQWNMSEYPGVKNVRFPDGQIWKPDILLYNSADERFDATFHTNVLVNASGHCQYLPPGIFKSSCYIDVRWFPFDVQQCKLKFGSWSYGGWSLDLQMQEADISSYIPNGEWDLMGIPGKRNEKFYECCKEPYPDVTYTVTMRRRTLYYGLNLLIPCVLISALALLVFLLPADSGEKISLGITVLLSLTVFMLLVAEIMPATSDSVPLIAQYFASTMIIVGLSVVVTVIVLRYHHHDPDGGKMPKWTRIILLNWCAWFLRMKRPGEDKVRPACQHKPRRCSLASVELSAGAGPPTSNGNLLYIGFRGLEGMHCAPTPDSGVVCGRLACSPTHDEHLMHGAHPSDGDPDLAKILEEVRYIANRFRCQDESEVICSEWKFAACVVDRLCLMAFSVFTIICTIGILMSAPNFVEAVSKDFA

Work on `O=C(Nc1cnc(N2CCN3CCC2CC3)nc1)c1ccccc1` [Compound 1, N-[2-(1,4-Diaza-bicyclo[3.2.2]non-4-yl)-pyrimidin-5-yl]-benzamide hydrochloric acid salt] yielded an IC50 of less than 100 nM.
